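Test compounds were applied to cells in 96-well plates for 48 hours at 5 doses. GI50 = concentration required for 50% inhibition of growth.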 The source made the active and inactive calls. No stated cut-off is given here; in the data, active = GI50 up to about 1.1 µM and inactive = higher.

The record followed here is ChEMBL document CHEMBL1201862, “PubChem BioAssay data set” (2004).

Among the test systems are KM12; DU-145; NCI-H460; SK-MEL-28; HCC 2998; LOX IMVI; HT-29; MDA-MB-435; SF-268; BT-549; UACC-62; Hs-578T; COLO 205; A498; MDA-MB-231; Malme-3M; A549; HOP-62; K562; SR.
Experiment in all cases: NCI-60 cell line screen, 48 h

Regarding `CCC12CCCN3CCc4c(n(c5ccccc45)C(O)(C(=O)OC)C1)C32` (stereo unspecified), the GI50 in the test with KM12, in the test with DU-145, in the test with NCI-H460, with SK-MEL-28, in the test with HCC 2998 and in the test with LOX IMVI was > 100 µM (inactive) each time. Moreover, the GI50 with HT-29, in the test with MDA-MB-435, in the test on SF-268, in the test on BT-549, with UACC-62 and with Hs-578T was > 100 µM (inactive) in each case. Further, the GI50 in the test with COLO 205, with A498, with MDA-MB-231, in the test with Malme-3M and with A549 was > 100 µM (inactive) in each case.
Take `COc1ccc(OC)c(C(Cc2ccnc3ccccc23)Cc2ccnc3ccccc23)c1`: the GI50 with KM12 is 7.29 µM (inactive); in the test on DU-145, > 10 µM (inactive); in the test with NCI-H460 it was 5.47 µM (inactive); with SK-MEL-28 it was > 10 µM (inactive); in the test with HCC 2998, > 10 µM (inactive); with HOP-62, > 10 µM (inactive). For the same compound, the GI50 was 5.36 µM (inactive) in the test on LOX IMVI; 6.5 µM (inactive) in the test with HT-29; 4.53 µM (inactive) with K562; 0.56 µM (active) with MDA-MB-435; > 10 µM (inactive) in the test on SF-268; 4.09 µM (inactive) in the test with BT-549. For the same compound, the GI50 is > 10 µM (inactive) in the test with UACC-62; 8.63 µM (inactive) in the test with Hs-578T; 8.04 µM (inactive) in the test with COLO 205; > 10 µM (inactive) with A498; > 10 µM (inactive) with MDA-MB-231; > 10 µM (inactive) in the test with A549.
For `COc1ccc(C2SCC(=O)N2NC(=O)c2ccc(NC(C)=O)cc2)cc1` (stereo unspecified), the GI50 with KM12, with DU-145, in the test on NCI-H460, in the test on SK-MEL-28, in the test with HCC 2998 and with HOP-62 was > 100 µM (inactive) throughout. Further, the GI50 in the test on HT-29 was > 100 µM (inactive); in the test with K562 it was > 100 µM (inactive); with MDA-MB-435 it was > 100 µM (inactive); with SF-268, > 100 µM (inactive); in the test on BT-549, 74.1 µM (inactive); in the test with UACC-62, > 100 µM (inactive). Moreover, the GI50 was > 100 µM (inactive) in the test with Hs-578T; > 100 µM (inactive) with COLO 205; > 100 µM (inactive) with A498; 26.5 µM (inactive) with MDA-MB-231; > 100 µM (inactive) with A549.
As for `CSCCCS/C1=C/CCCCCCCCCC1`, the GI50 in the test on KM12, in the test with DU-145, in the test with NCI-H460, in the test on SK-MEL-28, in the test with HCC 2998 and with SR was > 100 µM (inactive) in each case. Further, the GI50 with HOP-62, with LOX IMVI, in the test with HT-29, with K562, in the test on MDA-MB-435 and in the test with SF-268 was > 100 µM (inactive) throughout. Further, the GI50 in the test with UACC-62, with Hs-578T, in the test on COLO 205, in the test on A498, with MDA-MB-231 and with Malme-3M was > 100 µM (inactive) each time. Also, the GI50 in the test on A549 was > 100 µM (inactive).
Regarding `CC(C)=CCC/C(C)=C/CCC(C(=O)COCc1ccccc1)P1(=O)OC(C)(C)CN1C(C)(C)C` (stereo unspecified), the GI50 in the test on KM12 was 36 µM (inactive); in the test on DU-145 it was 81.7 µM (inactive); with NCI-H460 it was 52.2 µM (inactive); in the test with SK-MEL-28, 62.1 µM (inactive); in the test on SR, 21.8 µM (inactive); with HOP-62, > 100 µM (inactive). Moreover, the GI50 in the test with LOX IMVI is 27.5 µM (inactive); in the test on HT-29, 33.2 µM (inactive); in the test on K562 it was 31.9 µM (inactive); with MDA-MB-435 it was 51.4 µM (inactive); in the test with SF-268, 33.1 µM (inactive); in the test on BT-549, > 100 µM (inactive). Also, the GI50 with UACC-62 is > 100 µM (inactive); with COLO 205 it was 42.2 µM (inactive); with MDA-MB-231, > 100 µM (inactive); in the test on A549, 35.6 µM (inactive).
Consider `COC(=O)c1ccccc1CC(Cc1ccc2c(c1)CCC2)C(=O)OC` (stereo unspecified), for which the GI50 in the test on KM12 was 33.6 µM (inactive); with DU-145, > 100 µM (inactive); with NCI-H460, > 100 µM (inactive); in the test on SK-MEL-28, > 100 µM (inactive); with HCC 2998, > 100 µM (inactive); in the test with SR, 36.9 µM (inactive). The GI50 in the test with HOP-62 was > 100 µM (inactive); in the test on LOX IMVI it was > 100 µM (inactive); with HT-29, 50.6 µM (inactive); in the test with K562, 95.1 µM (inactive); in the test with MDA-MB-435 it was 66.1 µM (inactive); in the test on SF-268, > 100 µM (inactive). In addition, the GI50 with Hs-578T is > 100 µM (inactive); in the test on COLO 205, > 100 µM (inactive); with A498, > 100 µM (inactive); in the test on MDA-MB-231 it was > 100 µM (inactive); in the test with Malme-3M, 33.3 µM (inactive); in the test on A549, > 100 µM (inactive).
With `COCOc1cc(OC)ccc1C/C(=N/O)C(=O)OC`, the GI50 in the test with KM12, with DU-145, with NCI-H460, with SK-MEL-28, in the test on HCC 2998 and in the test on HOP-62 was > 100 µM (inactive) in each case. Moreover, the GI50 in the test with LOX IMVI, in the test with HT-29, with K562, in the test with MDA-MB-435, in the test with SF-268 and in the test on BT-549 was > 100 µM (inactive) in each case. Further, the GI50 in the test with UACC-62, with Hs-578T, with COLO 205, in the test with MDA-MB-231, in the test on Malme-3M and in the test on A549 was > 100 µM (inactive) each time.
As to `CC(C)(C)n1c(=O)n(-c2ccccc2)n(C(C)(C)C)c1=O`, the GI50 in the test on KM12, with NCI-H460, in the test on SK-MEL-28, in the test with HCC 2998, in the test on SR and with HOP-62 was > 100 µM (inactive) each time. Moreover, the GI50 with LOX IMVI, with HT-29, in the test on K562, in the test on BT-549, in the test on UACC-62 and in the test with Hs-578T was > 100 µM (inactive) each time. Further, the GI50 in the test with COLO 205, in the test on A498, in the test on MDA-MB-231, in the test with Malme-3M and in the test on A549 was > 100 µM (inactive) throughout.
`COC(=O)[C@@H]1O[C@]12C(CO[Si](C)(C)C(C)(C)C)OC(n1ccc(=O)[nH]c1=O)C2O[Si](C)(C)C(C)(C)C` (stereo partly specified): the GI50 in the test with KM12 is 31.7 µM (inactive); in the test with DU-145, 25.2 µM (inactive); with NCI-H460, 15.5 µM (inactive); in the test on SK-MEL-28 it was 25.5 µM (inactive); with HCC 2998, 6.87 µM (inactive); in the test with SR, > 10 µM (inactive). The GI50 in the test on HOP-62 was 24 µM (inactive); with LOX IMVI it was 14.8 µM (inactive); in the test on HT-29, 7.93 µM (inactive); in the test on K562 it was 25.5 µM (inactive); with MDA-MB-435 it was 23.6 µM (inactive); with SF-268, 30.4 µM (inactive). The GI50 with BT-549 is 17.5 µM (inactive); in the test with UACC-62, 24.2 µM (inactive); in the test on COLO 205 it was 24.1 µM (inactive); in the test on A498, > 10 µM (inactive); with MDA-MB-231, 28.2 µM (inactive); in the test on A549, 32.7 µM (inactive).
As to `O=[N+]([O-])c1ccc2nc(Nc3ccccc3)c(Nc3ccccc3)nc2c1`, the GI50 in the test with KM12 was 1.3 µM (inactive); with DU-145 it was 1.77 µM (inactive); in the test on NCI-H460, 0.42 µM (active); in the test on SK-MEL-28, 2.45 µM (inactive); in the test with HCC 2998, 1.25 µM (inactive); with SR it was 0.489 µM (active). Moreover, the GI50 in the test with HOP-62 is 1.19 µM (inactive); in the test with LOX IMVI it was 1.58 µM (inactive); with HT-29, 0.463 µM (active); in the test with K562, 2.04 µM (inactive); with MDA-MB-435, 1.66 µM (inactive); in the test on SF-268 it was 1.62 µM (inactive). In addition, the GI50 was 1.02 µM (active) in the test on UACC-62; 2.65 µM (inactive) with Hs-578T; 1.62 µM (inactive) in the test with COLO 205; 0.929 µM (active) in the test with A498; 1.36 µM (inactive) in the test on MDA-MB-231; 1.84 µM (inactive) in the test with Malme-3M. The GI50 in the test on A549 was 0.349 µM (active).
Regarding `C=C1C(=O)O[C@@H]2C[C@@H](C)[C@@H]3C=CC(=O)[C@@]3(C)[C@@H](O)[C@H]12` [HELENALIN], the GI50 in the test with KM12 was 1.53 µM (inactive); in the test with DU-145 it was 3.79 µM (inactive); with NCI-H460, 1.73 µM (inactive); in the test on SK-MEL-28, 1.76 µM (inactive); in the test with HCC 2998 it was 1.51 µM (inactive); in the test with SR, 0.594 µM (active). Also, the GI50 in the test with HOP-62 was 5.89 µM (inactive); in the test on LOX IMVI, 0.574 µM (active); with HT-29, 1.71 µM (inactive); with K562, 0.622 µM (active); with MDA-MB-435 it was 1.58 µM (inactive); in the test on SF-268 it was 3.5 µM (inactive). In addition, the GI50 in the test with BT-549 was 1.04 µM (active); in the test with UACC-62, 1.39 µM (inactive); in the test with COLO 205, 1.56 µM (inactive); in the test on A498 it was 1.86 µM (inactive); in the test on MDA-MB-231, 3.95 µM (inactive); with Malme-3M, 1.69 µM (inactive). Moreover, in the test with A549, the GI50 was 2.9 µM (inactive).
